{"source": "patent US8304211B2", "about": "“Methods of screening molecular libraries and active molecules identified thereby” (priority 2002, dated 2012)", "key": {"SW480 cells": {"system": "SW480 cells", "test": "Dose response in SW480", "type": "cell-based, human", "conditions": "2 days", "description": "1. Dissolve the drug at a concentration of 10 mg/ml in PBS.\n3. A confluent flask of SW480 cells was treated with trypsin and the cells were suspended in growth media at concentrations of 5×10^5 cells/ml.\n5. Incubate at 37° C., 5% CO2 for 2 days."}, "normal human lymphocytes": {"system": "normal human lymphocytes", "conditions": "3.125-800 g/ml as printed, 2 days", "quoted_text": "Growth media used is the RPMI-1640 (Gibco Laboratories, Grand Island, N.Y.) supplemented with 25 mM Hepes buffer, 10% FBS serum (Gibco), 100 U/ml penicillin/streptomycin, 50 μg/ml gentamycin, 2 mM L-glutamin, 1× nonessential amino acids (Gibco)\nIn a 50-ml centrifugation tube, add 10 ml of Lymphoprep™. 2. Mix 15 ml blood and 15 ml HBSS-buffer (containing heparin). 3. Carefully add the blood mixture from step 2, to the tubes containing Lymphoprep™ without mixing the phases. 4. Centrifuge at 450 g at room temperature for 45 min. 5. Isolate the Buffy-coat layer containing the PBMC (peripheral blood mononuclear cells), and place in a fresh tube. 6. Add 7 ml HBSS-buffer to the tube to wash the PBMC. 7. Centrifuge 5-10 min 600 g. 8. Remove the supernatant and wash the PBMC again with a total of 10-ml HBSS-. 9. Suspend the cells in complete media RPMI 1640. Incubate the cells in a small culture flask for 1 hour at 37° C. 10. Remove the unattached cells (lymphocytes) from the small culture flask and dilute the cells to a concentration of 5×10^5 cell/ml. 11. Dissolve drug at 10 mg/ml in PBS. 12. Add 100 μl of growth media to the rest of the wells. 13. Prepare 100 l of a series of concentration of 1600, 800, 400, 200, 100, 50, 25, 12.5, 6.25 μg/ml were made. Triplicate wells were used for each concentration as well as the control (0.0 g/ml), for each of Drug1, 2 and 3. 14. […]"}, "TrpR(T44M) [1]": {"target": "T1, TrpR(T44M) (Escherichia coli, UniProt P0A881, T44M)", "conditions": "peptide expressed from pPep plasmid, arabinose induced", "description": "(§1) A λRTLF culture containing pTrpRep(WT), pTrpRep(T44M), pTrprG85E, and pTrpRep(None) were transformed with one of pPep(MGFLR) or pPep(MGFWR), and grown in both BTTRG and BTTRA media to an OD of 0.6 at wavelength 600 at 30° C. with shaking. Two hundred microliters of cultures assayed for β-galactosidase levels at wavelength 405 nm as described in Fenton et al (1998) BBRC 242(1):71-78.\n(§2) λRTLF cultures containing one of pTrpRep(WT), pTrpRep(T44M), pTrprG85E, or pTrpRep(None) were grown in BTTRG media supplemented with one of following synthesized peptides MGFLR, MGFWR, MGRRW, FLR, FWR at a concentration of 1 mM. The cultures were grown to an OD of 0.6 at wavelength 600 at 30° C. with shaking. Two hundred microlitres of cultures assayed for -galactosidase levels at wavelength 405 as described in Fenton et al (1998) supra.\nThe cultures were grown to an OD of 0.6 at wavelength 600 at 30° C. with shaking."}, "TrpR (G85E)": {"target": "TrpR (G85E) (Escherichia coli, UniProt P0A881, G85E)", "conditions": "peptide expressed from pPep plasmid", "description": "as §1, §2"}, "TrpR(T44M) [2]": {"target": "T1, TrpR(T44M)", "conditions": "arabinose induced expression, both in the presence and absence of tryptophan", "quoted_text": "RNA was electophoresed through a 1% formaldehyde gel according to Sambrooke et al's Manual (1989). The gel was capillary blotted onto nitrocellulose filter paper using the standard protocols. RNA was UV crosslinked by 45 seconds of UV exposure. The filter was prehydridised for 3 hours at 65 C and then hybridised for 36 hours at 65° C. Hybridisation buffers were in accordance with Sambrook. The filter was dried at room temperature and placed in a phosphoimager cassette overnight. The filter was then scanned by Molecular Dynamics phosphoimager 400e (880 E. Argues Ave, Sunnyvale Calif. 94086)."}, "SW480.7 cells": {"system": "SW480.7 cells", "test": "Validation of selected peptide ligand: cell proliferation/death after transfection", "type": "cell-based, Homo sapiens (human)", "conditions": "SW480.7, ligand expressed from pCEP4 plasmid, 15 days without puromycin selection", "description": "(§3) Cells SW480.7, U-2OS, and Sa-os2 were transfected with peptide ligand and pCEP4 parallelly using the calcium phosphate method.\n(§4) After transfection, cells were cultured without drug selection and diluted at the ratio of 1:100 every five days. Cell proliferation status was closely observed until ligand transfected SW480.7 cells died out. Life staining with 0.4% trypan blue was applied to determine the death of the cells. Dead cells can not exclude the dye thus were stained blue. Living cells can pump the dye outside thus were not stained."}, "Saos-2 cells": {"system": "Saos-2 cells", "test": "Validation of selected peptide ligand: cell proliferation/death after transfection", "type": "cell-based, Homo sapiens (human)", "conditions": "Saos-2 (p53 null), ligand expressed from pCEP4 plasmid, without puromycin selection", "description": "as §3, §4"}, "U2-OS cells": {"system": "U2-OS cells", "test": "Validation of selected peptide ligand: cell proliferation/death after transfection", "type": "cell-based, Homo sapiens (human)", "conditions": "U2-OS (wild type p53), ligand expressed from pCEP4 plasmid, without puromycin selection", "description": "as §3, §4"}, "[3]": {"system": "R273H/P309S p53 mutant in SW480.7 cells", "test": "RT-PCR analysis of mRNA level of p53 transactivated genes", "type": "cell-based, Homo sapiens (human)", "conditions": "ligand transfected SW480.7 compared with empty pCEP4 transfected SW480.7, RT-PCR", "text": "Total RNA was collected, from two wells of one ligand transfected SW480.7 plate and one pCEP4 transfected SW480.7 plate each day on day 0, day 1, and day 2 after transfection. Thus RNA samples were harvested as SW480.7/Ligand-0 day, SW480.7/Ligand-1 day, SW480.7/Ligand-2 day, SW480.7/pCEP4-0 day, SW480.7/pCEP4-1 day, SW480.7/pCEP4-2 day. Protocol for total RNA extraction by TRIZOL® Reagent was according to that given by Life Technology:\nFirst-Strand cDNA Synthesis • 1. For each RNA sample, combine the following reagents in a sterile 0.2-ml reaction tube:\n• 2. Mix and spin the tube briefly. • 3. Incubate the tube at 70° C. in a thermal cycler for 2 min. • 4. Spin the tube briefly to collect contents at the bottom. Keep tube at room temperature. • 5. Add the following to each reaction tube:\n• 6. Gently vortex and spin the tubes briefly. • 7. Incubate the tubes at 42° C. for 1 hr in an air incubator or cycler. • 8. Add 40 μl TE buffer (10 mM Tris (pH7.6), 1 mM EDTA) to dilute the first-strand reaction product. • 9. Heat tubes at 72° C. for 7 min to inactivate reverse transcriptase. • 10. Samples can be stored at −20° C. for up to three months. cDNA Amplification by PCR • 1. Preheat the PCR thermal cycler to 95° C. • 2. For each reaction, 5 μl of diluted first-strand cDNA and 5 μl of deionized water are added to a labeled 0.2-ml reaction tube. • 3. Prepare a master mix for all reaction tubes, plus one additional tube. For each reaction:\n• 4. Mix by vortexing and spin the tube briefly. • 5. Aliquot 40 μl of the PCR Master Mix into each tube from Step 2. • 6. Cap the tube, and place it in the preheated thermal cycler. • 7. PCR was carried out using the following cycling parameters:\n• 8. Electrophoreses 5 μl of each PCR reaction alongside 0.1 μg of 1-kb DNA ladder on a 1.2% agarose/EtBr gel in 1× TBE buffer. Results"}}, "note": "Starred links: 1 amine or outer side, 2 acyl side, 3 side chain; linkers in the order of their positions; H or OH if unused. Residues, ends and D or L forms follow the SMILES beside them. Groups on a side chain read outwards from the residue. *: point of attachment. Pteroyl = Nc1nc2ncc(CNc3ccc(C(=O)*)cc3)nc2c(=O)[nH]1; γGlu = O=C(O)[C@H](CCC(=O)[*:2])N[*:1]", "data": [{"compound": "CSCC[C@H](N)C(=O)NCC(=O)N[C@@H](Cc1c[nH]c2ccccc12)C(=O)N[C@@H](CS)C(=O)N[C@H](C(=O)N[C@@H](CCCCNC(=O)CC[C@H](NC(=O)c1ccc(NCc2cnc3nc(N)[nH]c(=O)c3n2)cc1)C(=O)O)C(=O)O)[C@@H](C)O", "note": "[Drug 2, MGWCT-K-Folic] (H-MGWCTK([γGlu-Pteroyl])-OH; N-terminus and C-terminus assumed)", "values": [{"measurement": "Activity on metastatic cancer cells SW480 (number of surviving cells)", "setting": "SW480 cells; 3.125-800 μg/ml", "result": "best results"}, {"measurement": "IC50 as molar amount per well", "setting": "SW480 cells; SW480 cells", "result": 0.0257, "unit": "μmol/well"}, {"measurement": "Effect on normal human lymphocytes (number of surviving cells)", "setting": "normal human lymphocytes", "result": "no effect"}]}, {"compound": "MGFLR", "values": [{"measurement": "Restoration of TrpR(T44M) function (β-galactosidase activity)", "setting": "TrpR(T44M) [1]", "result": "restored TrpR(T44M) function"}, {"measurement": "Restoration of TrpR mutant G85E function (β-galactosidase activity)", "setting": "TrpR (G85E)", "result": "did not restore"}, {"measurement": "Transcription of LacZ", "setting": "TrpR(T44M) [2]", "result": "repressed"}, {"measurement": "Transcription of PheS", "setting": "TrpR(T44M) [2]", "result": "repressed"}]}, {"compound": "MGFWR", "values": [{"measurement": "Restoration of TrpR(T44M) function (β-galactosidase activity)", "setting": "TrpR(T44M) [1]", "result": "restored TrpR(T44M) function"}, {"measurement": "Restoration of TrpR mutant G85E function (β-galactosidase activity)", "setting": "TrpR (G85E)", "result": "did not restore"}]}, {"compound": "MGWCT (peptide derivative) [Drug 3, Penta-peptide, no folate conjugation]", "values": [{"measurement": "Cell status after transfecting the ligand", "setting": "SW480.7 cells", "result": "could no longer attach to the wall and died"}, {"measurement": "Cell status after transfecting the ligand", "setting": "Saos-2 cells", "result": "growing well"}, {"measurement": "Cell status after transfecting the ligand", "setting": "U2-OS cells", "result": "growing well"}, {"measurement": "mRNA level of 14-3-3σ", "setting": "[3]", "result": "much higher"}, {"measurement": "mRNA level of CD95", "setting": "[3]", "result": "much higher"}, {"measurement": "mRNA level of p21 (WAF1/Cip1)", "setting": "[3]", "result": "much higher"}]}]}
